Literature values in patent US20150164858A1, “COMBINATION COMPRISING PARTHENOLIDE FOR USE IN THE TREATMENT OF ALZHEIMER'S DISEASE AND OTHER NEURODEGENERATIVE DISORDERS” (King Abdullah University of Science and Technology, priority 2012, published 2015).

How the values were obtained:
patients with AD = conditions: moderate to severe AD
TLR4 = TLR4 (Homo sapiens, UniProt O00206)
[1] = tested on: HEK293 cells stably expressing TLR4/MD-2/CD14

TLR4, sequence (O00206 24-839): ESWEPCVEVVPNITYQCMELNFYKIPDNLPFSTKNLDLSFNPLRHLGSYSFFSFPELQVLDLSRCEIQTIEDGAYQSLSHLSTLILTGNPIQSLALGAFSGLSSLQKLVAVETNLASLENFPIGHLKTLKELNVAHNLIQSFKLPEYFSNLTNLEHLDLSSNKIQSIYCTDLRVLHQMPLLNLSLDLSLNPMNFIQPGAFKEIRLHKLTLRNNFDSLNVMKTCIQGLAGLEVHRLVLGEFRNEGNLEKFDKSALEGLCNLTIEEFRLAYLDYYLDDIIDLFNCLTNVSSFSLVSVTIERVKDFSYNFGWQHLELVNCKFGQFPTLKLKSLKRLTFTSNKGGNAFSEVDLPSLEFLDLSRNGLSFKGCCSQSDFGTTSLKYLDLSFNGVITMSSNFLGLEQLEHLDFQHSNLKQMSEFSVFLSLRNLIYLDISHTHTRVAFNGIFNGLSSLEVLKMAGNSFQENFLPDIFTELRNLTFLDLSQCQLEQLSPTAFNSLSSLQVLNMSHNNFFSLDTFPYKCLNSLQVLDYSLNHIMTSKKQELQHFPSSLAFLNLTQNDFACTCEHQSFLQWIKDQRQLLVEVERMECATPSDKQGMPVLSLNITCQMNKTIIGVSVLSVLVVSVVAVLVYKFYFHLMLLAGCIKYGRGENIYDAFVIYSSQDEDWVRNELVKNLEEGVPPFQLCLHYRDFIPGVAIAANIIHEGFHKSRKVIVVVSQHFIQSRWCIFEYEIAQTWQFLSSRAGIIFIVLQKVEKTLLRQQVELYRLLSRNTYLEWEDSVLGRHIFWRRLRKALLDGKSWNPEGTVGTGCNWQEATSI

| Structure (SMILES) | cognitive function (patients with AD) | TLR4 signaling (TLR4) | binding site in TLR4 (TLR4; intracellular domain of TLR4) | TIRAP-mediated activation of NF-κB [1] | TRAM-mediated activation of NF-κB and interferon-sensitive response element [1] |
| --- | --- | --- | --- | --- | --- |
| CC12CC3CC(C)(C1)CC(N)(C3)C2 [Memantine] | improve cognitive function |  |  |  |  |
| CCOC(=O)C1=CCCC[C@H]1S(=O)(=O)Nc1ccc(F)cc1Cl [Resatorvid] |  | suppress TLR4 signaling | binding directly to a specific amino acid Cys747 | inhibit | inhibit |
